Test system: MCT-induced PAH
Test: Monocrotoline (MCT)-induced model of pulmonary arterial hypertension (PAH) in rats
Assay type: in vivo, rat
Conditions: day 28, oral BID, NTP42 and TP20 0.25 mg/kg/dose, Sildenafil 50 mg/kg/dose
Description: FIGS. 19-23 show the efficacy of NTP42 in the monocrotoline (MCT)-induced model of pulmonary arterial hypertension (PAH) in rats. In brief, male Wistar/Kyoto rats were given a single dose of MCT (60 mg/kg, subcutaneously) and then treated with twice daily doses (oral dosing) for 28 days with either the drug vehicle, the test article NTP42 (0.25 mg/kg/dose, BID) or with the reference compounds Sildenafil (50 mg/kg/dose, BID) or TP20 (0.25 mg/kg/dose, BID). As a control, a group of rats were left untreated, i.e., no MCT or therapeutic drugs. At Day 28, post-MCT induction, rats were anaesthetised for cardiac surgery & hemodynamic parameters recorded. Thereafter, the trachea, heart & lungs were removed en masse, the wet weights of the heart & lungs recorded and then the lungs were harvested, fixed and processed for histopathology.
Aperio's ImageScope was used to analyze the digitally scanned H&E stained lung sections, where 10 random squares (approx. size or each square=1×10^6 μm^2) per lower, middle and upper section of lung tissue were selected for analysis. Within each square, all blood arterioles (complete arterioles within each square and those touching the right & bottom were assessed but not the left or top of the squares) were measured in ImageScope for luminal and total vessel diameter where the ratio of lumen to total vessel diameter was determined for each arteriole.
FIGS. 24-27 show the effect of the test articles on the mean (±S.E.M.) lumen: total vessel diameter ratio for all arterioles (Total) and the arterioles categorized by size: small, <50 μm total diameter; medium, 50-100 μm and large, >100 μm.
FIG. 27 presents data representing the mean (±SEM) lumen: total vessel diameter ratio for large arterioles (>100 μm).

CCCc1nn(C)c2c(=O)[nH]c(-c3cc(S(=O)(=O)N4CCN(C)CC4)ccc3OCC)nc12 [Sildenafil, reference compound]
lumen: total vessel diameter ratio versus animals treated with MCT-alone: significantly increased
